Measured values published in ChEMBL document CHEMBL4699579, “A Peptidyl Inhibitor that Blocks Calcineurin-NFAT Interaction and Prevents Acute Lung Injury” (J Med Chem, 2020).
The source made the active and inactive calls. The calls are words filed in the database; no cut-off is given here.

Tests used:
[1] = Binding affinity to GST-tagged Calcineurin (unknown origin) incubated for 1 hr by fluorescence polarization assay; design: species or system Homo sapiens
[2] = (§1) Binding affinity to GST-tagged Calcineurin (unknown origin) assessed as reduction in binding of peptide-14 incubated for 1 hr by fluorescence polarization assay; design: species or system Homo sapiens
Homo sapiens = species on record: Homo sapiens; assay: as §1
[3] = Stability in 25% human serum assessed as compound degradation at 5 uM at 37 degC incubated for 24 hrs by HPLC analysis; type: ADME, cell-free; details: 25% human serum, read-out: Drug degradation
[4] = Solubility in PBS containing 5% DMSO at pH 7.4 incubated for 1 hr; type: physicochemical
[5] = Drug uptake in human HeLa cells at 5 uM incubated for 2 hrs using naphthofluorescein-labelled compound by live-cell confocal microscopic analysis; type: ADME, cell-based
HeLa = assay: Toxicity in human HeLa cells assessed as reduction in cell viability up to 25 uM incubated for 72 hrs by MTT assay; type: cell-based
NCI-H441 = assay: Toxicity in human NCI-H441 cells assessed as reduction in cell viability up to 25 uM incubated for 72 hrs by MTT assay; type: cell-based; details: nci-h441, 72 h
Macrophage [6] = assay: Inhibition of calcineurin-NFATc3 interaction in mouse lung macrophages assessed as reduction in LPS-induced TNFalpha production at 0.1 to 10 uM pre-incubated 4 hrs before LPS stimulation for 8 hrs by ELISA; type: tissue-based; details: dose microM 0.1-10, time 12.0 hrs
Macrophage [7] = assay: Inhibition of calcineurin-NFATc3 interaction in mouse lung macrophages assessed as reduction in LPS-induced IL6 production at 0.1 to 10 uM pre-incubated 4 hrs before LPS stimulation for 8 hrs by ELISA; type: tissue-based; details: dose microM 0.1-10, time 12.0 hrs
[8] = Tmax in BALF of C57BL/6 mouse at 5 mg/kg using TMR-labeled compound instilled into both nostrils by flow cytometry; type: ADME, organism-based, Bronchoalveolar lavage; details: inhaled or intranasal
[9] = Drug localization in total leukocytes of C57BL/6 mouse assessed as TMR-positive total leukocytes at 5 mg/kg using TMR-labeled compound instilled into both nostrils measured after 4 hrs by flow cytometry; type: ADME, organism-based, Leucocyte; details: in vivo, inhaled_or_intranasal
[10] = Drug localization in total leukocytes of C57BL/6 mouse assessed as TMR-positive total leukocytes at 5 mg/kg using TMR-labeled compound instilled into both nostrils measured after 24 hrs by flow cytometry; type: ADME, organism-based, Leucocyte; details: in vivo, inhaled_or_intranasal
[11] = Drug localization in plasma of C57BL/6 mouse at 5 mg/kg using TMR-labeled compound instilled into both nostrils measured after 24 hrs by flow cytometry; type: ADME, organism-based; details: in vivo, inhaled_or_intranasal
[12] = Toxicity in of C57BL/6 mouse assessed as effect on lactate dehydrogenase level in total lung cells at 5 mg/kg using TMR-labeled compound instilled into both nostrils measured after 24 hrs by Cyto-tox 96 assay; type: organism-based; details: in vivo, inhaled_or_intranasal
[13] = Toxicity in of C57BL/6 mouse assessed as induction of neutrophil infiltration at 5 mg/kg using TMR-labeled compound instilled into both nostrils measured after 24 hrs by Hema-3.0 staining based assay; type: organism-based; details: in vivo, inhaled_or_intranasal
Mus musculus [14] = assay: Anti-inflammatory activity in BALB/c mouse model of LPS-induced ALI assessed as reduction in LPS-induced TNFalpha in BALF at 5 mg/kg dosed via intranasal insuffIation pre-treated 2 hrs before LPS stimulation for 16 hrs; type: functional, organism-based; details: dose mg/kg 5-10, time 18.0 hrs
Mus musculus [15] = assay: Anti-inflammatory activity in BALB/c mouse model of LPS-induced ALI assessed as reduction in LPS-induced IL6 in BALF at 5 mg/kg dosed via intranasal insuffIation pre-treated 2 hrs before LPS stimulation for 16 hrs; type: functional, organism-based; details: dose mg/kg 5-10, time 18.0 hrs
Mus musculus [16] = assay: Anti-inflammatory activity in BALB/c mouse model of LPS-induced ALI assessed as reduction in LPS-induced extravasated BALF protein in BALF at 5 mg/kg dosed via intranasal insuffIation pre-treated 2 hrs before LPS stimulation for 16 hrs; type: functional, organism-based; details: dose mg/kg 5-10, time 18.0 hrs
Mus musculus [17] = assay: Anti-inflammatory activity in BALB/c mouse model of LPS-induced ALI assessed as reduction in LPS-induced TNFalpha in plasma at 5 mg/kg dosed via intranasal insuffIation pre-treated 2 hrs before LPS stimulation for 16 hrs; type: functional, organism-based; details: dose mg/kg 5-10, time 18.0 hrs
Mus musculus [18] = assay: Anti-inflammatory activity in BALB/c mouse model of LPS-induced ALI assessed as reduction in LPS-induced IL6 in plasma at 5 mg/kg dosed via intranasal insuffIation pre-treated 2 hrs before LPS stimulation for 16 hrs; type: functional, organism-based; details: dose mg/kg 5-10, time 18.0 hrs
Mus musculus [19] = assay: Anti-inflammatory activity in BALB/c mouse model of LPS-induced ALI assessed as reduction in lung wet-to-dry ratios at 5 mg/kg dosed via intranasal insuffIation pre-treated 2 hrs before LPS stimulation for 16 hrs; type: functional, organism-based; details: dose mg/kg 5-10, time 18.0 hrs
Mus musculus [20] = assay: Anti-inflammatory activity in BALB/c mouse model of LPS-induced ALI assessed as reduction in number of neutrophils BALF at 5 mg/kg dosed via intranasal insuffIation pre-treated 2 hrs before LPS stimulation for 16 hrs; type: functional, organism-based; details: dose mg/kg 5-10, time 18.0 hrs
Mus musculus [21] = assay: Anti-inflammatory activity in BALB/c mouse model of LPS-induced ALI assessed as reduction in LPS-induced TNFalpha in BALF at 10 mg/kg dosed via intranasal insuffIation pre-treated 2 hrs before LPS stimulation for 16 hrs; type: functional, organism-based; details: time 18.0 hrs
Mus musculus [22] = assay: Anti-inflammatory activity in BALB/c mouse model of LPS-induced ALI assessed as reduction in LPS-induced IL6 in BALF at 10 mg/kg dosed via intranasal insuffIation pre-treated 2 hrs before LPS stimulation for 16 hrs; type: functional, organism-based; details: time 18.0 hrs
Mus musculus [23] = assay: Anti-inflammatory activity in BALB/c mouse model of LPS-induced ALI assessed as reduction in LPS-induced extravasated BALF protein in BALF at 10 mg/kg dosed via intranasal insuffIation pre-treated 2 hrs before LPS stimulation for 16 hrs; type: functional, organism-based; details: time 18.0 hrs
Mus musculus [24] = assay: Anti-inflammatory activity in BALB/c mouse model of LPS-induced ALI assessed as reduction in LPS-induced TNFalpha in plasma at 10 mg/kg dosed via intranasal insuffIation pre-treated 2 hrs before LPS stimulation for 16 hrs; type: functional, organism-based; details: time 18.0 hrs
Mus musculus [25] = assay: Anti-inflammatory activity in BALB/c mouse model of LPS-induced ALI assessed as reduction in lung wet-to-dry ratios at 10 mg/kg dosed via intranasal insuffIation pre-treated 2 hrs before LPS stimulation for 16 hrs; type: functional, organism-based; details: time 18.0 hrs
Mus musculus [26] = assay: Anti-inflammatory activity in BALB/c mouse model of LPS-induced ALI assessed as reduction in number of neutrophils BALF at 10 mg/kg dosed via intranasal insuffIation pre-treated 2 hrs before LPS stimulation for 16 hrs; type: functional, organism-based; details: time 18.0 hrs
[27] = Toxicity in C57BL/6 mouse assessed as effect on physical appearance at 50 mg/kg, ip; type: organism-based; details: in vivo
[28] = Toxicity in C57BL/6 mouse assessed as effect on body temperature at 50 mg/kg, ip; type: organism-based; details: in vivo
[29] = Toxicity in C57BL/6 mouse assessed as effect on self grooming at 50 mg/kg, ip; type: organism-based; details: in vivo
[30] = Toxicity in C57BL/6 mouse assessed as effect on respiratory function measured by pulmonary arterial oxygen saturation at 50 mg/kg, ip; type: organism-based; details: in vivo
[31] = Toxicity in C57BL/6 mouse assessed as induction of body weight loss at 50 mg/kg, ip measured during 1 weeks; type: organism-based; details: in vivo, 168 h
[32] = Toxicity in C57BL/6 mouse assessed as efect on animal growth rates at 50 mg/kg, ip measured during 1 weeks; type: organism-based; details: in vivo, 168 h
[33] = Toxicity in C57BL/6 mouse assessed as induction of body weight loss at 10 mg/kg dosed via intranasal insuffIation measured during 1 weeks; type: organism-based; details: in vivo, inhaled_or_intranasal, 168 h
[34] = Toxicity in C57BL/6 mouse assessed as effect on animal growth rates at 10 mg/kg dosed via intranasal insuffIation measured during 1 weeks; type: organism-based; details: in vivo, inhaled_or_intranasal, 168 h
[35] = Toxicity in mouse lung macrophages cells assessed as reduction in cell viability up to 25 uM incubated for 72 hrs by MTT assay; type: tissue-based; details: macrophage
Macrophage [36] = assay: Inhibition of calcineurin-NFATc3 interaction in mouse bone marrow-derived macrophages assessed as reduction in LPS-induced NFATc3 nuclear translocation at 1 uM pre-incubated before LPS stimulation for 1 hr using biotinylated compound by immunofluorescence staining assay

Which Kd [1] does the source give for `CC[C@H](C)[C@H](NC(=O)[C@@H](NC(=O)c1cccc(Cl)c1Cl)C(C)(C)C)C(=O)N[C@H](C(=O)N[C@H](C(=O)N[C@H](C(=O)N[C@@H](CCC(N)=O)C(=O)N[C@@H](Cc1cnc[nH]1)C(=O)N[C@@H](CC(C)C)C(=O)N[C@@H](CO)C(=O)NCCC(=O)N[C@@H](CCCCNC(=O)CC[C@@H]1NC(=O)[C@@H](CCCNC(=N)N)NC(=O)[C@H](CCCNC(=N)N)NC(=O)[C@@H](CCCNC(=N)N)NC(=O)[C@H](CCCNC(=N)N)NC(=O)[C@H](Cc2ccc3ccccc3c2)NC(=O)[C@@H](Cc2ccccc2)NC1=O)C(N)=O)[C@H](C)O)[C@@H](C)CC)C(C)(C)C` here?
Its Kd is 75 nM.

What about the IC50 [2] of the same compound?
Its IC50 is 630 nM.

What about the inhibition (Homo sapiens) of the same compound?
Its inhibition is “Dose-dependent effect”.

And the metabolised at 24 h, 5 µM [3]?
The metabolised at 24 h, 5 µM was < 10%.

And the solubility kinetic at 1 h [4]?
Its solubility kinetic at 1 h is ≥ 100 µM.

What about the Drug uptake [5] of the same compound?
The Drug uptake was “Active”.

And the Activity (HeLa)?
Its Activity is “Non-Toxic”.

And the Activity (NCI-H441)?
The Activity was “Non-Toxic”.

What about the inhibition (Macrophage [6]; DISRUPTING AGENT) of the same compound?
Its inhibition is “Dose-dependent effect”.

And the inhibition (Macrophage [6])?
Its inhibition is 17%.

And the inhibition (Macrophage [7]; DISRUPTING AGENT)?
The inhibition was “Dose-dependent effect”.

What about the inhibition (Macrophage [7]) of the same compound?
Its inhibition is 22%.

And the Tmax [8]?
Its Tmax is 2 h.

And the Drug uptake [9]?
The Drug uptake was 80%.

What about the Drug uptake [10] of the same compound?
The Drug uptake was “Not Active”.

And the Drug uptake [11]?
Its Drug uptake is “Not Active”.

And the Activity [12]?
Its Activity is “Non-Toxic”.

And the Activity [13]?
The Activity was “Non-Toxic”.

What about the Activity (Mus musculus [14]) of the same compound?
Its Activity is “inactive”.

What about the Activity (Mus musculus [15]) of the same compound?
Its Activity is “inactive”.

And the Activity (Mus musculus [16])?
The Activity was “inactive”.

What about the Activity (Mus musculus [17]) of the same compound?
Its Activity is “inactive”.

What about the Activity (Mus musculus [18]) of the same compound?
The Activity was “inactive”.

And the Activity (Mus musculus [19])?
Its Activity is “inactive”.

What about the Activity (Mus musculus [20]) of the same compound?
Its Activity is “inactive”.

What about the Activity (Mus musculus [21]) of the same compound?
Its Activity is “Active”.

What about the Activity (Mus musculus [22]) of the same compound?
Its Activity is “Active”.

What about the Activity (Mus musculus [23]) of the same compound?
Its Activity is “Active”.

And the Activity (Mus musculus [24])?
The Activity was “Active”.

What about the Activity (Mus musculus [25]) of the same compound?
Its Activity is “Active”.

What about the Activity (Mus musculus [26]) of the same compound?
Its Activity is “Active”.

And the Activity [27]?
Its Activity is “Non-Toxic”.

What about the Activity [28] of the same compound?
Its Activity is “Non-Toxic”.

What about the Activity [29] of the same compound?
The Activity was “Non-Toxic”.

What about the Activity [30] of the same compound?
Its Activity is “Non-Toxic”.

What about the Activity [31] of the same compound?
The Activity was “Non-Toxic”.

And the Activity [32]?
The Activity was “Non-Toxic”.

What about the Activity [33] of the same compound?
The Activity was “Non-Toxic”.

What about the Activity [34] of the same compound?
The Activity was “Non-Toxic”.

And the Activity [35]?
Its Activity is “Non-Toxic”.

And the inhibition (Macrophage [36])?
The inhibition was “Active”.
